MIC data for seven molecules are collected here from DBAASP.

What all share (assay): ≥ marks a high value that may be exact or a test limit, other limits are often not marked, values filed in µg/mL are converted to µM
The test system of experiment [1] is Pseudomonas aeruginosa ATCC 27853.
The test system of experiment [2] is Klebsiella pneumoniae ATCC 43816.
In experiment [3] the test system is Staphylococcus aureus NCTC 10788.
In experiment [4] the test system is Staphylococcus aureus.
The test system of experiment [5] is Enterococcus faecalis NCTC 12697.
Experiment [6] concerns Staphylococcus aureus ATCC 12493.
Experiment [7] deals with Candida albicans NCYC 1467.
Experiment [8] deals with Escherichia coli NCTC 10418.
Experiment [9] deals with Staphylococcus aureus ATCC 6538.
Experiment [10] has as its system Proteus vulgaris NCTC 4635.
In experiment [11] the test system is Escherichia coli ATCC 8739.
The test system of experiment [12] is Bacillus subtilis ATCC 9372.
In experiment [13] the test system is Pseudomonas aeruginosa ATCC 9027.
Experiment [14] relates to Escherichia coli DC2.
The test system of experiment [15] is Corynebacterium xerosis C875.
Experiment [16] has as its system Staphylococcus epidermidis C621.
Experiment [17] deals with Escherichia coli UB1005.
Experiment [18] deals with Shigella dysenteriae ATCC 9752.
Experiment [19] relates to Klebsiella pneumoniae ATCC 10031.
Experiment [20] relates to Escherichia coli ATCC 25922.
The subject of experiment [21] is Bacillus subtilis ATCC 6633.
For experiment [22], the system named is Staphylococcus aureus TK784.
The test system of experiment [23] is Staphylococcus epidermidis ATCC 12228.
The subject of experiment [24] is Staphylococcus aureus ATCC 6538P.
Experiment [25] has as its system Salmonella enterica subsp. enterica serovar Typhimurium ATCC 14028.
Experiment [26] deals with Micrococcus luteus ATCC 10240.

Converted amounts (≈) assume the structure as drawn. Some results are limits rather than exact numbers.

As for `CC[C@H](C)[C@H](NC(=O)[C@H](CO)NC(=O)[C@H](CCCCN)NC(=O)[C@H](Cc1c[nH]c2ccccc12)NC(=O)[C@H](CC(C)C)NC(=O)[C@H](C)N)C(=O)N[C@@H](CC(C)C)C(=O)N[C@@H](CCCCN)C(=O)N[C@@H](CC(N)=O)C(=O)N[C@H](C(=O)NCC(=O)N[C@@H](CCCCN)C(=O)N[C@@H](C)C(=O)N[C@@H](C)C(=O)NCC(=O)N[C@@H](CCCCN)C(=O)N[C@@H](C)C(=O)N[C@H](C(=O)N[C@@H](CC(C)C)C(N)=O)C(C)C)C(C)C` [ALWKSILKNVGKAAGKAVL], the minimum inhibitory concentration (MIC) is 4 µM (≈ 7.87 µg/mL) in [1]; at least 32 µM in experiment [2]; 2 µM (≈ 3.93 µg/mL) in experiment [3]; 11.3 µM (≈ 22.2 µg/mL) in [4]; at least 256 µM in experiment [5]; 8 µM (≈ 15.7 µg/mL) in [6]. For the same molecule, the MIC in [7] and in [8] was 2 µM (≈ 3.93 µg/mL) throughout.

For `CC[C@H](C)[C@H](NC(=O)[C@@H](NC(=O)[C@H](CO)NC(=O)[C@H](C)NC(=O)[C@@H](NC(=O)[C@H](CCCCN)NC(=O)[C@H](CCCCN)NC(=O)[C@@H](NC(=O)[C@@H](NC(=O)[C@H](C)NC(=O)[C@H](Cc1ccccc1)NC(=O)[C@H](CC(C)C)NC(=O)CN)C(C)C)[C@@H](C)CC)C(C)C)C(C)C)C(=O)NCC(=O)NCC(=O)O` [GLFAVIKKVASVIGG], the MIC in [9] is above 351 µM; in [10], at least 351 µM; in experiment [11], at least 351 µM; in [12], at least 351 µM; in experiment [13], 351 µM (≈ 512 µg/mL).

Turning to `CC[C@H](C)[C@H](NC(=O)[C@@H](NC(=O)[C@H](CC(=O)O)NC(=O)[C@H](Cc1ccccc1)NC(=O)[C@H](CC(C)C)NC(=O)CN)C(C)C)C(=O)N[C@@H](CCCCN)C(=O)N[C@@H](CCCCN)C(=O)N[C@H](C(=O)N[C@@H](C)C(=O)N[C@@H](CO)C(=O)O)C(C)C` [GLFDVIKKVAS], the MIC was above 870 µM in experiment [9]; at least 870 µM in experiment [10]; at least 870 µM in [11]; at least 435 µM in experiment [12]; 870 µM (≈ 1020 µg/mL) in experiment [13].

As to `C[C@H](NC(=O)[C@H](C)NC(=O)[C@H](C)NC(=O)[C@H](CCCCN)NC(=O)[C@H](C)NC(=O)[C@H](C)NC(=O)[C@H](C)NC(=O)[C@H](CCCCN)NC(=O)[C@@H](N)CCCCN)C(=O)N[C@@H](C)C(=O)N[C@@H](C)C(=O)N[C@@H](CCCCN)C(=O)N[C@@H](C)C(=O)N[C@@H](C)C(=O)N[C@@H](Cc1c[nH]c2ccccc12)C(=O)N[C@@H](C)C(=O)N[C@@H](C)C(=O)N[C@@H](CCCCN)C(=O)N[C@@H](C)C(=O)N[C@@H](C)C(=O)N[C@@H](C)C(=O)N[C@@H](CCCCN)C(=O)N[C@@H](CCCCN)C(=O)N[C@@H](CCCCN)C(=O)N[C@@H](CCCCN)C(N)=O` [KKAAAKAAAAAKAAWAAKAAAKKKK], the MIC is at least 64 µM in experiment [14], 16 µM (≈ 38.8 µg/mL) in [15], at least 64 µM in experiment [16] and at least 64 µM in [17].

Regarding `CSCC[C@H](NC(=O)[C@H](C)NC(=O)[C@H](C)NC(=O)[C@H](C)NC(=O)[C@H](CCCCN)NC(=O)[C@@H](N)CCCCN)C(=O)N[C@@H](C)C(=O)N[C@@H](C)C(=O)N[C@@H](C)C(=O)N[C@@H](C)C(=O)N[C@@H](C)C(=O)N[C@@H](CCSC)C(=O)N[C@@H](C)C(=O)N[C@@H](C)C(=O)N[C@@H](Cc1c[nH]c2ccccc12)C(=O)N[C@@H](C)C(=O)N[C@@H](C)C(=O)N[C@@H](CCSC)C(=O)N[C@@H](C)C(=O)N[C@@H](C)C(=O)N[C@@H](C)C(=O)N[C@@H](CCCCN)C(=O)N[C@@H](CCCCN)C(=O)N[C@@H](CCCCN)C(=O)N[C@@H](CCCCN)C(N)=O` [KKAAAMAAAAAMAAWAAMAAAKKKK], the MIC in experiment [14] was at least 32 µM; in experiment [15] it was 0.5 µM (≈ 1.22 µg/mL); in experiment [16], 16 µM (≈ 38.9 µg/mL); in experiment [17], at least 32 µM.

Regarding `CC(C)C[C@H](NC(=O)[C@H](CC(C)C)NC(=O)[C@H](CCCCN)NC(=O)[C@H](CCCCN)NC(=O)[C@H](CC(C)C)NC(=O)[C@H](CC(C)C)NC(=O)[C@H](CCCCN)NC(=O)[C@H](CCCCN)NC(=O)[C@H](CC(C)C)NC(=O)[C@H](Cc1c[nH]c2ccccc12)NC(=O)[C@@H](N)CCCCN)C(N)=O` [KWLKKLLKKLL], the MIC in experiment [18] was determined as 0.709 µM (≈ 0.999 µg/mL); in experiment [19] it was 1.42 µM (≈ 2 µg/mL); in experiment [1], 5.67 µM (≈ 7.99 µg/mL); in experiment [20], 1.42 µM (≈ 2 µg/mL); in experiment [21] it was 1.42 µM (≈ 2 µg/mL); in experiment [22] it was 5.67 µM (≈ 7.99 µg/mL). Moreover, the MIC turned out to be 1.42 µM (≈ 2 µg/mL) in [23], 1.42 µM (≈ 2 µg/mL) in experiment [24], 1.42 µM (≈ 2 µg/mL) in experiment [25] and 2.84 µM (≈ 4 µg/mL) in [26].

In the case of `CC(C)C[C@H](NC(=O)[C@H](CC(C)C)NC(=O)[C@H](Cc1c[nH]c2ccccc12)NC(=O)[C@H](CCCCN)NC(=O)[C@H](CC(C)C)NC(=O)[C@H](CC(C)C)NC(=O)[C@H](Cc1c[nH]c2ccccc12)NC(=O)[C@H](CCCCN)NC(=O)[C@@H](N)CC(C)C)C(N)=O` [LKWLLKWLL], the MIC in experiment [18] was found to be 2.06 µM (≈ 2.5 µg/mL); in experiment [19], 4.12 µM (≈ 5 µg/mL); in experiment [1] it was 8.25 µM (≈ 9.99 µg/mL); in [20] it was 4.12 µM (≈ 5 µg/mL); in [21], 1.07 µM (≈ 1.3 µg/mL); in experiment [22], 2.06 µM (≈ 2.5 µg/mL). For the same molecule, the MIC in experiment [23] came out at 1.07 µM (≈ 1.3 µg/mL); in [24], 1.07 µM (≈ 1.3 µg/mL); in experiment [25], 8.25 µM (≈ 9.99 µg/mL); in [26] it was 2.06 µM (≈ 2.5 µg/mL).
